Laboratory results published in ChEMBL document CHEMBL5131515, “Identification of Pyridinyltriazine Derivatives as Potent panFGFR Inhibitors against Gatekeeper Mutants for Overcoming Drug Resistance” (J Med Chem, 2022).

How the values were obtained:
[1] = target: Fibroblast growth factor receptor 2 (Homo sapiens, UniProt P21802); experiment: Inhibition of wild-type FGFR2 (unknown origin) by radiometric kinase activity assay
[2] = target: Fibroblast growth factor receptor 3 (Homo sapiens, UniProt P22607); experiment: Inhibition of wild-type FGFR3 (unknown origin) by radiometric kinase activity assay
[3] = target: Fibroblast growth factor receptor 4 (Homo sapiens, UniProt P22455); experiment: Inhibition of wild-type FGFR4 (unknown origin) by radiometric kinase activity assay
[4] = target: Fibroblast growth factor receptor 2 (Homo sapiens, UniProt P21802, V564F)
Description: Inhibition of FGFR2 V564F mutant (unknown origin) by radiometric kinase activity assay

[5] = target: Fibroblast growth factor receptor 3 (Homo sapiens, UniProt P22607, V555M)
[6] = target: Fibroblast growth factor receptor 2 (Homo sapiens, UniProt P21802, N549H)
[7] = target: Fibroblast growth factor receptor 3 (Homo sapiens, UniProt P22607, K650E)
[8] = target: Fibroblast growth factor receptor 3 (Homo sapiens, UniProt P22607, K650M)
BaF3 [9] = experiment: cells; assay type: functional; conditions: Mus musculus
BaF3 [10] = experiment: Antiproliferative activity against mouse BaF3 cells harboring TEL-FGFR3 assessed as cell growth inhibition by CellTiter-Glo assay; assay type: functional
[11] = Antiproliferative activity against mouse BaF3 cells assessed as cell growth inhibition by CellTiter-Glo assay; conditions: BaF3 cells
BaF3 [12] = experiment: Antiproliferative activity against mouse BaF3 cells harboring TEL-FGFR4 V550E mutant assessed as cell growth inhibition by CellTiter-Glo assay; assay type: functional
BaF3 [13] = experiment: Antiproliferative activity against mouse BaF3 cells harboring TEL-FGFR4 N535K mutant assessed as cell growth inhibition by CellTiter-Glo assay; assay type: functional
AN3-CA = experiment: Antiproliferative activity against human AN3-CA cells harboring FGFR2 K310R/N549K mutant assessed as cell growth inhibition by CellTiter-Glo assay; assay type: functional
KMS-11 = experiment: Antiproliferative activity against human KMS-11 cells harboring FGFR3 Y373C mutant assessed as cell growth inhibition by CellTiter-Glo assay; assay type: functional
J82 = experiment: Antiproliferative activity against human J82 cells harboring FGFR3 K652E mutant assessed as cell growth inhibition by CellTiter-Glo assay; assay type: functional
[14] = Stability in human liver microsomes assessed as parent compound remaining at 1 uM incubated for 30 mins; assay type: ADME, Microsome; conditions: read-out: Stability
[15] = Stability in mouse liver microsomes assessed as parent compound remaining at 1 uM incubated for 30 mins; assay type: ADME, Microsome; conditions: read-out: Stability
[16] = Stability in rat liver microsomes assessed as parent compound remaining at 1 uM incubated for 30 mins; assay type: ADME, Microsome; conditions: read-out: Stability
[17] = Stability in dog liver microsomes assessed as parent compound remaining at 1 uM incubated for 30 mins; assay type: ADME, Canis lupus familiaris, Microsome; conditions: read-out: Stability
CYP1A2 = target: T1, CYP1A2 (Homo sapiens, UniProt P05177); experiment: Inhibition of CYP1A2 (unknown origin) assessed as remaining activity at 10 uM relative to control; assay type: ADME; conditions: read-out: Activity
T1 sequence (P05177 whole entry): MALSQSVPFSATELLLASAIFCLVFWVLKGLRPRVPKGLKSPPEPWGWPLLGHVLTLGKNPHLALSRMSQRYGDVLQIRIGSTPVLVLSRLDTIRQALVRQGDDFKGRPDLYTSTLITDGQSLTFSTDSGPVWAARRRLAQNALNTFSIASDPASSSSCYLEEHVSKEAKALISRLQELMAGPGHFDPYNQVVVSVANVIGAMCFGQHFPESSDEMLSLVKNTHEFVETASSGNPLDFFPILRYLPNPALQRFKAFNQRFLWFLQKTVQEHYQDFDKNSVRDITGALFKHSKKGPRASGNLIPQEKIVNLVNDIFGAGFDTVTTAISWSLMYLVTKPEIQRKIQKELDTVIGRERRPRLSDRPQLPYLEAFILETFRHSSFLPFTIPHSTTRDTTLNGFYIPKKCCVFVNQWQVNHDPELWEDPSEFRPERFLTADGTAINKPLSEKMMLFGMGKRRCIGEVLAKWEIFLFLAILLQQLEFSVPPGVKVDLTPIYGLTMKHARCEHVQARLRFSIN

CYP2C9 = CYP2C9 (Homo sapiens, UniProt P11712); experiment: Inhibition of CYP2C9 (unknown origin) assessed as remaining activity at 10 uM relative to control; assay type: ADME; conditions: read-out: Activity
CYP2C19 = CYP2C19 (Homo sapiens, UniProt P33261); experiment: Inhibition of CYP2C19 (unknown origin) assessed as remaining activity at 10 uM relative to control; assay type: ADME; conditions: read-out: Activity
CYP2D6 = CYP2D6 (Homo sapiens, UniProt P10635); experiment: Inhibition of CYP2D6 (unknown origin) assessed as remaining activity at 10 uM relative to control; assay type: ADME; conditions: read-out: Activity
CYP3A4 = CYP3A4 (Homo sapiens, UniProt P08684); experiment: Inhibition of CYP3A4 (unknown origin) assessed as remaining activity at 10 uM relative to control; assay type: ADME; conditions: read-out: Activity
[18] = tested on: Fibroblast growth factor receptor 2 (Homo sapiens), P21802 [V564F]; experiment: Inhibition of FGFR2 V564F mutant (unknown origin) at 10 uM by radiometric kinase activity assay relative to control
[19] = tested on: Fibroblast growth factor receptor 2 (Homo sapiens), P21802 [N549H]; experiment: Inhibition of FGFR2 N549H mutant (unknown origin) at 10 uM by radiometric kinase activity assay relative to control
[20] = tested on: Fibroblast growth factor receptor 3 (Homo sapiens), P22607 [V555M]; experiment: Inhibition of FGFR3 V555M mutant (unknown origin) at 10 uM by radiometric kinase activity assay relative to control
[21] = Oral bioavailability in mouse at 10 mg/kg; assay type: ADME, organism-based; conditions: in vivo
[22] = Toxicity in BALB/c mouse xenografted with human AN3-CA cells assessed as body weight loss at 20 to 40 mg/kg, po qd for 15 days measured once every 2 days; assay type: organism-based; conditions: in vivo, 360 h, dose 20-40 mg/kg, time 15 day
BaF3 [23] = experiment: Growth inhibition of mouse BaF3 cells harboring TEL-FGFR3 V555M mutant incubated for 72 hrs by Alamar blue assay; assay type: functional

CYP2D6, sequence (P10635 whole entry): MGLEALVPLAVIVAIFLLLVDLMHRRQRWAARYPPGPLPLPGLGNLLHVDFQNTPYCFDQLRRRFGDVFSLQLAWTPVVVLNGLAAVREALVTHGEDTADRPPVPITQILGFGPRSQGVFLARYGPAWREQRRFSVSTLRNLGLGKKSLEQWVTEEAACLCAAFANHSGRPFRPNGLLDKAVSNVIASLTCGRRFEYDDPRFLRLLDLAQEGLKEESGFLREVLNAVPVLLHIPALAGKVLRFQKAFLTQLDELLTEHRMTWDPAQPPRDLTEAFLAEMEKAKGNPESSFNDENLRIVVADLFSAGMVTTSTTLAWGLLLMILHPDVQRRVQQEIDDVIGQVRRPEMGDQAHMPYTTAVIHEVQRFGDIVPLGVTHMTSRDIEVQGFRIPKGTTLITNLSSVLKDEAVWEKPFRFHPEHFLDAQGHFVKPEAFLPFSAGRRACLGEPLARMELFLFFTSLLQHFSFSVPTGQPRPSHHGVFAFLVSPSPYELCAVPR
Fibroblast growth factor receptor 2 (Homo sapiens, UniProt P21802, V564F), sequence (P21802 22-821 V564F limits assumed): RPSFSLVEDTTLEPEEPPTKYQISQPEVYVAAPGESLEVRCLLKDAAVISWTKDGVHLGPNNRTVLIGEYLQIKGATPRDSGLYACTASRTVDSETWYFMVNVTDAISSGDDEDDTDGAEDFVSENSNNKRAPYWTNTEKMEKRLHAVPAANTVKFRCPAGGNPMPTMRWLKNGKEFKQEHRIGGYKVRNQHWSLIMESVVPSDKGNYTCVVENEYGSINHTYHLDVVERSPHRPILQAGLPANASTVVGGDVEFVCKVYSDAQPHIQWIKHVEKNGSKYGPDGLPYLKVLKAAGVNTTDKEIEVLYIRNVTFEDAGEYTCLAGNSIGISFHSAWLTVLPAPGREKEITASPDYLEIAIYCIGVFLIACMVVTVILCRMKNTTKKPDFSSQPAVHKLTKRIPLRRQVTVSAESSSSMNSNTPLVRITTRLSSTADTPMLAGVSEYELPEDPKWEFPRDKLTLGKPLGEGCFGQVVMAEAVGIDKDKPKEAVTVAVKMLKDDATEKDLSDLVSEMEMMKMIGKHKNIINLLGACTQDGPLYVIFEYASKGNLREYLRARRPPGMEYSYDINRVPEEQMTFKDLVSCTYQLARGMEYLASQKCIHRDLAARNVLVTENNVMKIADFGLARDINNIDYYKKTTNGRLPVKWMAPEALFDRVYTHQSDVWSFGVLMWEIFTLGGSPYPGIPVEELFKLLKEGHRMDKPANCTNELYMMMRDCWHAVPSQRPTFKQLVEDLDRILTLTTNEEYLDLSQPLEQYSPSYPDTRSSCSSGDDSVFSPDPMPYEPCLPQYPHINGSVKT
CYP2C19, sequence (P33261 whole entry): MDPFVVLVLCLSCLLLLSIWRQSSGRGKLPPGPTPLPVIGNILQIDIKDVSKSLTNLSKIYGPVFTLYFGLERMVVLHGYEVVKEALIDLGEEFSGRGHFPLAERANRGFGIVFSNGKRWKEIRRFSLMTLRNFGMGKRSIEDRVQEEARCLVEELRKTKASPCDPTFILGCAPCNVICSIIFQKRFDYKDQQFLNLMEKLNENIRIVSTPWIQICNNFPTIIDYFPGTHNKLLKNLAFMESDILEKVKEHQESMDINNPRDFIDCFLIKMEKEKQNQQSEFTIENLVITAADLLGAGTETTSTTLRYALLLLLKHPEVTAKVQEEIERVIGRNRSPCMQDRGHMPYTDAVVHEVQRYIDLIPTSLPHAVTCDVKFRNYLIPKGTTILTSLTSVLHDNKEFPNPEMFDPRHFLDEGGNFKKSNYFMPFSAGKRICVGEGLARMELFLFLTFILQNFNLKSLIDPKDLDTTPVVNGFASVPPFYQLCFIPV
CYP2C9, sequence (P11712 whole entry): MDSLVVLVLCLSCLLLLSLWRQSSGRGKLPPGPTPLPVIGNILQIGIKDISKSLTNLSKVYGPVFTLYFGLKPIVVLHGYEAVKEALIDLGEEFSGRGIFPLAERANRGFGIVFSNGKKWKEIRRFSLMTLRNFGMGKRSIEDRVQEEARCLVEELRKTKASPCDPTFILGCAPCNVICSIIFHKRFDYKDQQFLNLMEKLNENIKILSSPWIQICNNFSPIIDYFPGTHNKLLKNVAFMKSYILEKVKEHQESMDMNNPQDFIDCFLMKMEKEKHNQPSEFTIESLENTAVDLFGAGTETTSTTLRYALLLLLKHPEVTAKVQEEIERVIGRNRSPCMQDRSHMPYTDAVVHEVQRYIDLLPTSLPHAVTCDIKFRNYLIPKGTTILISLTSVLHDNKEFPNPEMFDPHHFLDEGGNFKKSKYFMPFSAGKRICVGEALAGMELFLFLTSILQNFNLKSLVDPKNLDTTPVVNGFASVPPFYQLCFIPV
Fibroblast growth factor receptor 2 (Homo sapiens), P21802 [V564F], sequence (P21802 whole entry V564F): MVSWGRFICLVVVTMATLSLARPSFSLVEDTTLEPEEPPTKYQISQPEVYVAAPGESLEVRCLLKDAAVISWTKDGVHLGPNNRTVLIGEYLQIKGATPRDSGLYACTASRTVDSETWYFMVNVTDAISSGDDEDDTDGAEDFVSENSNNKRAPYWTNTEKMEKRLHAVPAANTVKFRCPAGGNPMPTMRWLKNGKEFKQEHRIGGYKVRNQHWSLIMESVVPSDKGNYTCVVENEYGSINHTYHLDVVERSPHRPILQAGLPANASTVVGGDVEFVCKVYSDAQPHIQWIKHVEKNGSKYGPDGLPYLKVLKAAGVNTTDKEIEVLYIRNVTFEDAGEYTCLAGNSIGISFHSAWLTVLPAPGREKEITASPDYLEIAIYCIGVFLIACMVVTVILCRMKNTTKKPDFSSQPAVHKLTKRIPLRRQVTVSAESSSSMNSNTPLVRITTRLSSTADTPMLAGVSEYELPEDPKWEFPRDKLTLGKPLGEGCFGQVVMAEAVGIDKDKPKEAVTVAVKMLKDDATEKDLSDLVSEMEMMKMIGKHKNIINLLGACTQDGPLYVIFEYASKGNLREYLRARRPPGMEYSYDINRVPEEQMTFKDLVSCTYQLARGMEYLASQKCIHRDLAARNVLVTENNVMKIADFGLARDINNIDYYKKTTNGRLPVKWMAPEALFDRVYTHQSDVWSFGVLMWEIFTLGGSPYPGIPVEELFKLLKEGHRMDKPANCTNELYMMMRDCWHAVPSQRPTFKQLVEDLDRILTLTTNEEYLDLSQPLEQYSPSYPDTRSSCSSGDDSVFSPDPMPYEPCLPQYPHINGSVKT
Fibroblast growth factor receptor 2 (Homo sapiens, UniProt P21802, N549H), sequence (P21802 22-821 N549H limits assumed): as the sequence (P21802 22-821 V564F limits assumed) above, with N528H, F543V counted along it
Fibroblast growth factor receptor 3 (Homo sapiens, UniProt P22607, V555M), sequence (P22607 23-806 V555M limits assumed): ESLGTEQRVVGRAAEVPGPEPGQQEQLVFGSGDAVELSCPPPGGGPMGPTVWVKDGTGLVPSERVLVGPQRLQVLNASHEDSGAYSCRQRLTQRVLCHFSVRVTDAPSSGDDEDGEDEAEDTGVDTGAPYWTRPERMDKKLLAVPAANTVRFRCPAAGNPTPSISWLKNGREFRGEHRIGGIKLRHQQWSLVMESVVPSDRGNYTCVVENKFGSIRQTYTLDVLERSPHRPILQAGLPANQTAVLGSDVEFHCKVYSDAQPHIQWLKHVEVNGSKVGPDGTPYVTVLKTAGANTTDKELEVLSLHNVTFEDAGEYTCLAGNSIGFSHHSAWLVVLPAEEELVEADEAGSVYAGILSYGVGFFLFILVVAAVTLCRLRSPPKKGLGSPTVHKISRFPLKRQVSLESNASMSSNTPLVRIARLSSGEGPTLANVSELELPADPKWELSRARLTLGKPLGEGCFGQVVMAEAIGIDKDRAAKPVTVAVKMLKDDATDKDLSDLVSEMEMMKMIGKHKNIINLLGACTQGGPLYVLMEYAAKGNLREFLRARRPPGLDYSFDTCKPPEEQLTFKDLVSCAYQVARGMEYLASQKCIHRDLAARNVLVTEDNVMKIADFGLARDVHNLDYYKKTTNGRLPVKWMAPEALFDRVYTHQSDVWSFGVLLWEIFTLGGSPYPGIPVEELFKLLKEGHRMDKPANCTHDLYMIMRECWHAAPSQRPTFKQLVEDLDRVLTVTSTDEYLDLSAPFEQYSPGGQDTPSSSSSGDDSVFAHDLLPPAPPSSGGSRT

| Compound | IC50 [1] [nM] | IC50 [2] [nM] | IC50 [3] [nM] | IC50 [4] [nM] | IC50 [5] [nM] | IC50 [6] [nM] | IC50 [7] [nM] | IC50 [8] [nM] | GI50 (BaF3 [9]) [nM] | GI50 (BaF3 [10]) [nM] | GI50 [11] [nM] | GI50 (BaF3 [12]) [nM] | GI50 (BaF3 [13]) [nM] | GI50 (AN3-CA) [nM] | GI50 (KMS-11) [nM] | GI50 (J82) [nM] | remaining at 0.5 h, 1 µM [14] [%] | remaining at 0.5 h, 1 µM [15] [%] | activity at 10 µM (CYP1A2) [%] | activity at 10 µM (CYP2C9) [%] | further results |
| --- | --- | --- | --- | --- | --- | --- | --- | --- | --- | --- | --- | --- | --- | --- | --- | --- | --- | --- | --- | --- | --- |
| COc1cc(OC)c(Cl)c(Nc2ncccc2-c2ncnc(Nc3ccc(N4C[C@@H](C)N[C@@H](C)C4)cc3)n2)c1Cl | < 0.5 | 0.6 | 27 | 363 | 116 | 0.52 | < 0.5 | 26.1 | 733 | 5 | 1530 | 354 | 520 | 15 | 237 | 428 | 10.2 | 44.8 | 72.6 | 62.3 | remaining at 0.5 h, 1 µM [16]: 11.7%; remaining at 0.5 h, 1 µM [17]: 19%; activity at 10 µM (CYP2C19): 31.8%; activity at 10 µM (CYP2D6): 77.3%; activity at 10 µM (CYP3A4): 13.3% |
| COc1cc(OC)c(Cl)c(Nc2ncccc2-c2ncnc(Nc3cnn(C4CCN(C(C)C)CC4)c3)n2)c1Cl | < 0.5 | < 0.5 | 7.3 | 189 | 22.3 | < 0.5 | < 0.5 | 4.8 | 183 | 5 | > 5000 | 749 | 1680 | 21 | 34 | 547 | 21.8 | 11.5 | 75.9 | 79.1 | activity at 10 µM (CYP2C19): 44.6%; activity at 10 µM (CYP2D6): 81%; activity at 10 µM (CYP3A4): 17.6% |
| COc1cc(OC)c(Cl)c(Nc2ncccc2-c2ncnc(Nc3ccc(N4CCOCC4)nc3OC)n2)c1Cl | – | 1710 | – | – | – | – | – | – | > 5000 | > 5000 | > 5000 | – | – | > 50000 | > 50000 | 31000 | – | – | – | – | inhibition [18]: < 50%; inhibition [19]: < 50%; inhibition [20]: < 50% |
| COc1cc(N2CCOCC2)ccc1Nc1ncnc(-c2cccnc2Nc2c(Cl)c(OC)cc(OC)c2Cl)n1 | – | 1550 | – | – | – | – | – | – | > 5000 | > 5000 | > 5000 | – | – | > 50000 | > 50000 | 31200 | – | – | – | – | inhibition [18]: < 50%; inhibition [19]: < 50%; inhibition [20]: < 50% |
| COc1cc(OC)c(Cl)c(Nc2ncccc2-c2ncnc(Nc3cnn(C4CCNCC4)c3)n2)c1Cl | < 0.5 | 0.98 | 26.3 | 727 | 268 | 2.53 | < 0.5 | 10.9 | 1020 | 10 | > 5000 | 2590 | 3650 | 29 | 111 | 977 | 62.6 | 62.1 | 72.8 | 89.9 | bioavailability [21]: 13.2%; Activity [22]: Non-Toxic; remaining at 0.5 h, 1 µM [16]: 65.4%; remaining at 0.5 h, 1 µM [17]: 66.9%; activity at 10 µM (CYP2C19): 51%; activity at 10 µM (CYP2D6): > 100%; activity at 10 µM (CYP3A4): 44.1% |
| COc1ccccc1Nc1ncnc(-c2cccnc2Nc2c(Cl)c(OC)cc(OC)c2Cl)n1 | – | 275 | – | – | – | – | – | – | > 5000 | 4120 | > 5000 | – | – | 5550 | > 50000 | 31200 | – | – | – | – | inhibition [18]: < 50%; inhibition [19]: < 50%; inhibition [20]: < 50% |
| CCN1CCN(c2cccc(Nc3ncnc(-c4cccnc4Nc4c(Cl)c(OC)cc(OC)c4Cl)n3)c2)CC1 | < 0.5 | 0.58 | 101 | 578 | 134 | 0.6 | < 0.5 | 44.3 | 686 | 18 | 3630 | 994 | 1690 | 85 | 190 | 1110 | – | – | – | – | – |
| Cc1nc2ccc(-n3ncc(C(=O)c4cc5ccccc5[nH]4)c3N)cc2[nH]1 [FGFR INHIBITOR DEBIO 1347] | – | – | – | – | – | – | – | – | – | – | – | – | – | – | – | – | – | – | – | – | GI50 (BaF3 [23]): 8240 nM |
